# Laboratory results published in patent US20060046972A1, “Cytotoxic nucleoside analog compound 003 for treating cancer” (Parker Hughes Institute, priority 2004, published 2006).
# Test system: Lewis rats
# Assay: Cumulative toxicity of intraperitoneal doses in Lewis rats
# Format: in vivo
# Set-up: RBC: unit not given here
# Conditions: for ALC / ALT / ANC / AST / Albumin / Ammonia / Amylase / BUN / CPK / Calcium / Creatinine / Mean Weight Change (g ± SEM) / Mean Weight Change [%] / Morbidity / Phosphate / RBC / Total Bilirubin / Total Protein / Toxic Organ Lesions / Triglycerides / WBC / Weight Gain / Weight Loss: day 30
# Procedure: 1.2.8 Animals Female CD-1 mice (Body weight: ˜25 g; Age: 7 week old) were purchased, from Charles River Laboratories (Willmington, Mass., USA). MMTV Neu-mice [FVB/N-TgN(MMTV neu)202MUL; Jackson Laboratory, Bar Harbor, Me.] were bred to produce multiple litters. All mice were housed in microisolator cages (Lab Products, Inc., Maywood, N.Y., USA) containing autoclaved bedding in a controlled specific pathogen-free (SPF) environment (12-h light/12-h dark photoperiod, 22±1° C., 60±10% relative humidity), which is fully accredited by the USDA (United States Department of Agriculture). Adult male Lewis rats (Body weight: ˜160 g) were obtained from the specific pathogen-free (SPF) breeding facilities of Harlan Sprague Dawley (Indianapolis, Id., USA) at 14 weeks of age. All husbandry and experimental contact made with the mice and rats maintained SPF conditions. The rats were kept in microisolater cages (Allentown Caging Equipment Co., Inc., Allentown, N.J., USA) containing autoclaved food, water, and bedding. Animal studies were approved by Parker Hughes Institute Animal Care and Use Committee and all animal care procedures 1.5 conformed to the Guide for the Care and Use of Laboratory Animals (National Research Council, National Academy Press, Washington D.C. 1996, USA).
# The toxicity profile of Compound 003 in CD-1 mice and Lewis rats was examined, using standard procedures as previously reported for other experimental drugs (Uckun, et al., 2003, Arzneimittelforschun. 53:357; Uckun, et al., 2002, Clin Cancer Res. 8: 1224; Uckun, et al., 2002, Antimicrob Agents Chemother. 46:3428). In brief, mice and rats were treated with intraperitoneal injections of vehicle or Compound 003 at multiple dose levels. Compound 003 was administered as a 0.2 mL (for mice) or 0.5 mL (for rats) bolus injection containing 10% DMSO as a vehicle. Animals were allowed free access to autoclaved standard pellet food and tap water throughout the experiments and monitored daily for morbidity and mortality. Animals were electively sacrificed on day 7 or day 30 to determine the toxicity of Compound 003 by examining their blood chemistry profiles, blood counts, and evaluating multiple organs for the presence of toxic lesions. Blood was collected by intracardiac puncture following anesthesia with ketamine:xylazine and immediately heparinized. The blood chemistry profiles were examined using a Synchron CX5CE Chemical Analyzer (Beckman Instruments, Inc., Fullerton, Calif., USA). Blood counts (red blood cells [RBC], white blood cells [WBC] and platelets [Plt]) were determined using a HESKA Vet ABC-Diff Hematology Analyzer (HESKA Corporation, Fort Collins, Colo., USA). Absolute neutrophil counts (ANC) and absolute lymphocyte counts (ALC) were calculated from WBC values after determining the percentages of neutrophils and lymphocytes by a manual differential count. At the time of necropsy, […] from mice (bone, bone marrow, brain, cecum, heart, kidney, large intestine, liver, lung, lymph node, ovary, pancreas, skeletal muscle, skin, small intestine, spleen, stomach, thymus, thyroid gland, urinary bladder, and uterus, as available) and 21 different tissues from rats (bone, bone marrow, brain, coagulating gland, epididymis, heart, large intestine, small intestine, kidney, liver, lung, pancreas, peripheral nerve/spinal nerve, skeletal muscle, skin, spinal cord, spleen, stomach, testes, thymus, urinary bladder) were collected within 15 minutes after sacrifice, gross pathological findings were documented, organs were preserved in 10% neutral phosphate buffered formalin, and processed for histopathological examination. For histopathologic studies, formalin fixed tissues were dehydrated and embedded in paraffin by routine methods. Glass slides with affixed 4-5 micron tissue sections were prepared and stained with Hemotoxylin and Eosin (H&E). […]
# [1] = 20 mg/kg i.p. for 30 consecutive days
# [2] = 40 mg/kg i.p. for 30 consecutive days
# [3] = 80 mg/kg i.p. for 30 consecutive days
compound,measurement,setting,value
"COC(=O)C(C)NP(=O)(OCC1OC(n2cc(C)c(=O)[nH]c2=O)CC1N=[N+]=[N-])Oc1ccc(OC)cc1 (stereo not shown) [Compound 003, 3′-azidothymidine 5′-[p-methoxyphenylmethoxyalaninyl phosphate]]",ALC,[1],9.6 ± 0.0 ×10^9L
same,ALT,[1],68.0 ± 5.5 IU/L
same,ANC,[1],2.4 ± 0.0 ×10^9L
same,AST,[1],7.6 ± 1.6 IU/L
same,Albumin,[1],1.5 ± 0.0 g/dL
same,Ammonia,[1],77.2 ± 4.1 µmol/L
same,Amylase,[1],1667.1 ± 29.8 U/L
same,BUN,[1],21.8 ± 0.4 mg/dL
same,CPK,[1],546.1 ± 109.9 IU/L
same,Calcium,[1],10.9 ± 0.1 mg/dL
same,Creatinine,[1],0.6 ± 0.0 mg/dL
same,Mean Weight Change (g ± SEM),[1],9.02 ± 1.39 g
same,Mean Weight Change [%],[1],(2.68 ± 0.41%)
same,Morbidity,[1],0/10
same,Phosphate,[1],6.2 ± 0.2 mg/dL
same,RBC,[1],10.0 ± 0.1 ×10^9
same,Total Bilirubin,[1],0.6 ± 0.1 mg/dL
same,Total Protein,[1],6.3 ± 0.1 g/dL
same,Toxic Organ Lesions,[1],0/10
same,Triglycerides,[1],87.4 ± 9.9 mg/dL
same,WBC,[1],11.9 ± 0.4 ×10^9/L
same,Weight Gain,[1],10/10
same,Weight Loss,[1],0/10
same,ALC,[2],10.7 ± 0.0 ×10^9L
same,ALT,[2],64.2 ± 1.4 IU/L
same,ANC,[2],1.9 ± 0.0 ×10^9L
same,AST,[2],6.8 ± 1.0 IU/L
same,Albumin,[2],1.6 ± 0.0 g/dL
same,Ammonia,[2],91.4 ± 8.2 µmol/L
same,Amylase,[2],1586.3 ± 31.4 U/L
same,BUN,[2],21.8 ± 0.3 mg/dL
same,CPK,[2],409.4 ± 55.3 IU/L
same,Calcium,[2],10.4 ± 0.1 mg/dL
same,Creatinine,[2],0.5 ± 0.0 mg/dL
same,Mean Weight Change (g ± SEM),[2],9.66 ± 1.36 g
same,Mean Weight Change [%],[2],(2.85 ± 0.38%)
same,Morbidity,[2],0/10
same,Phosphate,[2],5.6 ± 0.1 mg/dL
same,RBC,[2],10.1 ± 0.1 ×10^9
same,Total Bilirubin,[2],0.6 ± 0.1 mg/dL
same,Total Protein,[2],6.1 ± 0.1 g/dL
same,Toxic Organ Lesions,[2],0/10
same,Triglycerides,[2],103.0 ± 10.7 mg/dL
same,WBC,[2],12.9 ± 0.4 ×10^9/L
same,Weight Gain,[2],10/10
same,Weight Loss,[2],0/10
same,ALC,[3],10.0 ± 0.0 ×10^9L
same,ALT,[3],62.5 ± 1.8 IU/L
same,ANC,[3],2.1 ± 0.0 ×10^9L
same,AST,[3],9.4 ± 0.7 IU/L
same,Albumin,[3],1.6 ± 0.0 g/dL
same,Ammonia,[3],92.8 ± 6.0 µmol/L
same,Amylase,[3],1658.3 ± 51.8 U/L
same,BUN,[3],22.7 ± 0.7 mg/dL
same,CPK,[3],371.0 ± 44.3 IU/L
same,Calcium,[3],10.5 ± 0.2 mg/dL
same,Creatinine,[3],0.6 ± 0.0 mg/dL
same,Mean Weight Change (g ± SEM),[3],7.37 ± 1.70 g
same,Mean Weight Change [%],[3],(2.24 ± 0.51%)
same,Morbidity,[3],0/10
same,Phosphate,[3],5.9 ± 0.1 mg/dL
same,RBC,[3],9.8 ± 0.1 ×10^9
same,Total Bilirubin,[3],0.7 ± 0.1 mg/dL
same,Total Protein,[3],6.3 ± 0.1 g/dL
same,Toxic Organ Lesions,[3],0/10
same,Triglycerides,[3],83.4 ± 11.2 mg/dL
same,WBC,[3],12.2 ± 0.3 ×10^9/L
same,Weight Gain,[3],9/10
same,Weight Loss,[3],1/10
same,postmortem gross pathology,20-80 mg/kg/day for 30 days,did not reveal any gross pathological findings
same,"Slight tubular degeneration, share of animals",80 and 40 mg/kg,50%
same,systemic toxicity by blood tests,"day 30, 20-80 mg/kg/day",did not suggest any significant systemic toxicity
same,tolerability,"i.p. daily for up to 30 days, daily dose as high as 80 mg/kg, cumulative as high as 2.4 g/kg",well tolerated
